Measurements as given in patent EP1501797B1, “3-(SUBSTITUTED AMINO)-1H-INDOLE-2-CARBOXYLIC ACID ESTER AND 3-(SUBSTITUTED AMINO)-BENZO[B]THIOPHENE-2-CARBOXYLIC ACID ESTER DERIVATIVES AS INTERLEUKIN-4 GENE EXPRESSION INHIBITORS” (Aventis Pharmaceuticals Inc., priority 2002, dated 2003).

Test system: IL-4
Test: In vivo ovalbumin (OVA) mouse model, BALF IL-4
Parameters: species or system mice
Conditions: for IL-4 pg/ml (± SEM): 30 minutes before OVA challenge, BALF 24 hours, vehicle 1220.4 ± 207.7
Description: This model is designed to determine the ability of a test article to modulate an antigen-induced pulmonary inflammatory cell accumulation in sensitized Balb/c mice from Charles River Laboratories. The mice are given a two week time period from arrival date prior to sensitizations.
On days 0, 7, 14, each animal is injected intraperitoneal (i.p.) with a 0.2 ml Ovalbumin Hydragel solution. Each animal receives 10 µg of Ovalbumin in 0.2 mL of Hydragel, aluminum hydroxide adsorptive gel containing 2% aluminum oxide. […] On day 22, BALF samples are collected from one group of animals and used for cytokine analysis. On day 24, BALF is obtained from a second group of animals and used for differential cell counts.
Test System: Female Babl/cJ mice (Jackson Laboratories), approximately 6-9 weeks old, each weighing approximately 20 to 25 grams, are divided into ten animals per group.
Sensitization Regimen: Mice are sensitized by an intraperitoneal injection of 10 µg ovalbumin (OVA) mixed in 4 mg aluminum hydroxide Al(OH)3 gel suspension in 0.2 ml sterile saline on Days 0, 7 and 14. This suspension is prepared one hour before intraperitoneal injection into each mouse. The animals are ready for OVA challenge on Day 21.
Antigen Challenge: Animals are exposed to aerosolized OVA on day 21 (5% w/v in sterile saline) for 20 minutes. The aerosol is generated by a PARI-Master nebulizer, the outlet of which is connected to a small Plexiglas® chamber containing the animals. Bronchoalveolar lavage is performed on Day 22.
Method of Study Performance: On day 24, 72 hours following aerosol OVA exposure, a separate group of animals are anesthetized with urethane (0.15 - 0.2 gm/kg) and the trachea is exposed and cannulated. Lungs are lavaged with 2 x 0.5 ml Hank's balanced salt solution without Ca^2+ and Mg^2+ (HBSS; Gibco, Grand Island, NY) containing 0.1% EDTA. Lavage fluid is recovered after 30 sec by gentle aspiration and pooled for each animal. Samples are centrifuged at 2000 rpm for 15 minutes at 5°C. After centrifugation, individual supernatants are stored frozen at -80°C. The resulting pellet is resuspended in 0.5 ml of HBSS containing 0.1% EDTA. Total cells and eosinophils are determined using a Technicon Hl and cytoslides, respectively.
Administration of the Test/Control Article: The test article and vehicle dosing preparations are administered once to each anesthetized mouse intranasally using a 200 µl pipette at 30-60 minutes prior to OVA challenge. Each animal receives 50 µl (25 µl/nostril) at each time point. Method of Euthanasia: Urethane overdose at in-life completion.
Compounds administered 30 minutes before aerosol ovalbumin challenge in ova sensitized mice. BALF harvested 24 hours after aerosol challenge. N = 6/group.
Mice (12 animals per group) are sensitized with 0.2 ml of an AlOH3 hydrogel suspension (2% AlOH3) containing 50 µg/ml ovalbumin on days 0, 7 and 14. […] The glucocorticosteroid budesonide (10 mg/kg) is included as a control. All compounds are given in 0.5% methylcellulose/0.2% Tween 80, intranasally (50µl). After the OVA challenge for 24 hours, the mice underwent bronchoalveolar lavage and IL-4 and IL-13 levels in the BALF are determined by ELISA. Another group of mice underwent bronchoalveolar lavage (72 hours after treatment) to determine the number of the eosinophils (*p<0.05, **p<0.01).
Compounds are given (30 mg/kg), intranasally, once, 30 min before OVA challenge unless noted otherwise. BAL fluids are collected 24 hours after OVA challenge and the cytokine levels are measured by standard ELISAs.

O=C(O)c1[nH]c2ccccc2c1Nc1ccncc1 [Example 28, 3-(4-Pyridinylamino)-1H-indole-2-carboxylic acid]
IL-4 pg/ml (± SEM) (3 mg/kg intranasal): 835.1 ± 40.4 pg/mL
IL-4 pg/ml (± SEM) (10 mg/kg intranasal): 414.3 ± 115.5 pg/mL
IL-4 pg/ml (± SEM) (30 mg/kg intranasal): 123.9 ± 48.7 pg/mL
ED50 (Mus musculus, mice, intranasally, FIG. 1, read-out: ED50, allergen-induced IL-4 levels in the BALF): ~10 mg/kg
